Reference: patent publication US8334253B2, “Cosmetic and dermatological formulations of MNTF peptides” (Dermacare Neuroscience Institute, priority 2008, dated 2012)
Peptide text beside a SMILES is read from it. * marks the point of attachment. Palmitoyl = CCCCCCCCCCCCCCCC(=O)*

Experiments:
[1] = tested on: cellular peroxide levels in human epidermal keratinocytes; test: Cellular peroxide levels in keratinocytes, DCFH-DA dye and flow cytometry, with and without exogenous H2O2; format: cell-based
Procedure: Hydrogen peroxide can induce damages to skin cells. The dermal protective efficacy of Pal-hexapeptide was assessed by measuring basal peroxide levels in the presence and absence of the compound.
Basal peroxide production, generated by normal cellular metabolism, induce gradual development of low levels of peroxide-specific cellular fluorescence.
Extracellular peroxides (e.g., H2O2 added exogenously) can permeate the cell membrane and cause a rapid and dramatic increase in the peroxide-specific fluorescence of the cell. Cellular peroxides levels can be measured by flow cytometry using the peroxide-specific dye, 2′,7′-dichlorofluorescein diacetate (DCFH-DA). DCFH-DA is initially non-fluorescent and is rapidly concentrated within living cells by an enzyme-dependent process. […] The results of the assay indicates if a test compound functions as an oxidant or an anti-oxidant in a cellular system. If the test article functions as an anti-oxidant, this assay can also be used to determine if the test compound can permeate the cell membrane to quench intracellular peroxide or if it can only affect extracellular peroxide levels (Bass et al., 1983, J. Immunol. 130:1910-1917; Bombick et al., 1992, Toxicol. Meth. 2:255-264).
Human primary keratinocytes, generally on the third passage, were seeded in T75 flasks and cultured until 70-80% confluent. A cell suspension was created and these cells were loaded with the dye DCFH-DA. The pre-incubated cells were exposed to dilutions of the Pal-hexapeptide having the amino acid sequence SEQ ID NO: 2 in two triplicate sets per dilution. One triplicate set was incubated with H2O2 (exogenous source of peroxide), and both sets were stained with Propidium Iodide. Cell viability and peroxide production were determined by fluorescence readings on a FACScan flow cytometer. Peroxide value increases or decreases of 25% or more compared to vehicle control values are considered biologically significant.

[2] = tested on: UVA-bleaching of beta-carotene; test: UVA bleaching of beta-carotene on forearm skin, Color Index by CHROMAMETER; format: in vivo, human; conditions: 0.1% gel on human forearm, UVA
Procedure: In-vivo method for assessing the protective effects of cosmetic products. Bleaching of carotenoids have been used to evaluate the auto-oxidation activity of natural products. The relative efficacy of scavengers of lipid peroxyl free radicals after application to the skin was assessed by measuring the UVA-bleaching of beta-carotene as a function of the energy exposure.
A CHROMAMETER colorimeter (TM, Minolta Model CR-300) was used to measure changes in color by expressing the color of measured surfaces numerically in L*a*b* color space which is a system recommended by the CIE (Commission Internationale de I'Eclairage) for skin color assessment. In this color space, L* is the luminance and gives the relative brightness from total black (L*=0) to total white (L*=100). The a* value represents the balance between the reds (positive values) and the greens (negative values). The b* value represents the balance between the yellows (positive values) and the blues (negative values). The b* value most closely describes the intensity of the orange color of the β-carotene stain and is in direct correlation with the Color Index, I. The CHROMAMETER provides a means by which oxidative damage caused by free radicals and, conversely, the prevention of oxidation by free radical scavengers, can be measured. Free radical oxidation induced by UVA radiation elicits a bleaching and reduction of color of beta-carotene stain. The bleaching and prevention of bleaching by a test material can be measured by the CHROMAMETER. Bleaching is reported as the change in b* versus UVA Irradiation Energy. It can also be expressed in terms of a Color Index, I, defined as: I=[(bn*−bi*)/(b0*−bi*)]×100 where, bn* is the value of b* measured after n J/cm^2 of irradiation of the area treated with the cosmetic formulation and painted with the β-carotene; b0* is the value of b* after application of the beta-carotene but before irradiation; and bi* is the value of b* before application of the beta-carotene. This index compensates for any effects of skin color on bn* and b0*. Bleaching will cause bn* value and I value (as a percentage) to decrease. Prevention of bleaching will result in higher I values or less reduction in I value when exposed to radiation.
The designated forearm of impaneled subjects was cleansed with a 70% isopropyl alcohol prep pad (Medium, Dynarex) and allowed to dry. Test sites were selected on the volar surface of the designated forearm of each subject, with each test site defined by the open, central area of a self-adhesive ring (Professional ProFoot™ Products, P.P.R. Co, Inc.). The adhesive side of the rings were placed directly on the skin. The rings were used to retain the test material and beta-carotene solution as well as to function as a guide for taking measurements with the CHROMAMETER.
Gel formulations (0.1% Pal-hexapeptide) and (0.1% hexapeptide) were applied to the forearm according to a randomized schedule. Additional sites were treated with a beta-carotene control, a positive control (internal control) and an untreated control. Treatment of the test sites were randomized for each subject.
Prior to application of the test materials or beta-carotene, the initial b* parameter was measured using the CHROMAMETER and recorded for all duplicate test sites of the forearm (Baseline). Approximately 2 mg/cm^2 of each material was applied to the designated test site and spread manually with a finger cot to ensure even distribution. Sites designated as untreated, with or without beta-carotene, remained untreated at this time. The test materials and internal control were allowed to incubate with the skin surface for a period of fifteen (15) minutes. After this incubation period, b* measurements were recorded for all sites (Product Baseline).
A solution of beta-carotene in a mixture of capric and caprylic triglycerides was applied to all treated sites. The b* parameter is again measured and recorded (beta-carotene Baseline). […]

With CCCCCCCCCCCCCCCC(=O)N[C@@H](Cc1ccccc1)C(=O)N[C@@H](CO)C(=O)N[C@@H](CCCNC(=N)N)C(=O)N[C@@H](Cc1ccc(O)cc1)C(=O)N[C@@H](C)C(=O)N[C@@H](CCCNC(=N)N)C(=O)O [Pal 6 mer, Pal-FSRYAR] (Palmitoyl-FSRYAR-OH; C-terminus assumed) the “peroxide level, % of the control, endogenous peroxide assay without exogenous H2O2” value ([1]; 0.79 mM, endogenous peroxide) was 40.21%, the “peroxide level, % of the control, assay with exogenous added peroxide” value ([1]; 0.79 mM, exogenous H2O2 added) was 9.88% and the “Cell viability, expressed as % of non-viable, treated versus not treated cells” value ([1]; keratinocytes, Propidium Iodide staining) was “about the same”. For the same molecule, the “preventing the bleaching of beta-carotene compared to the beta-carotene control” value [2] was “effective as a free radical scavenger”.
